One series deals with plasma proteins. As to conditions: cited from earlier work.
Series [1] concerns UGTs in human liver microsomes pooled from 150 donors (HLM150). Type of series: in vitro ADME. Conditions: for Km: read-out: Km for the microsomal reaction, glucuronidation at the C7 hydroxyl group, HLM150.
The next series deals with recombinant UGT1A1. As to conditions: read-out: Km for the UGT1A1 reaction, glucuronidation at the C7 hydroxyl group; cited from earlier work.
The mark [2] stands for this setting: formation of 7-HOWAR-4-GLUC, DynaFit preferred model, 95 % CI in parentheses.
[3] abbreviates: formation of 7-HOWAR-7-GLUC, DynaFit preferred model, 95 % CI in parentheses.

Structures are written as SMILES. Where two headings read alike, the source gives them in different places.

Consider `CC(=O)C[C@H](c1ccccc1)c1c(O)c2ccc(O)cc2oc1=O` [R-7-HOWAR, R-7-hydroxywarfarin], for which, in the series on plasma proteins, the “not bound to plasma proteins” value was 4.49%. The Vmax1 in series [1] (setting [2]) is recorded as 58.0 (49.5–66.1) nmol/min/mg protein; in series [1] (setting [3]) it was 1090 (1050–1140) nmol/min/mg protein. Moreover, the Vmax2 in series [1] (setting [2]) was 19.0 (16.3–21.4) nmol/min/mg protein. In addition, the Ks in series [1] (setting [3]) is listed as 121 (101–144) μM. The Km was 121 µM in series [1] and 130 µM in the series with recombinant UGT1A1.
As to `CC(=O)C[C@@H](c1ccccc1)c1c(O)c2ccc(O)cc2oc1=O` [S-7-OHWAR, S-7-hydroxywarfarin], in the series on plasma proteins, the “not bound to plasma proteins” value was 4.27%. Moreover, the Ks in series [1] (setting [2]) is on record as 110 (83.0–149) μM; in series [1] (setting [3]), 927 (559–1960) μM. Further, the figures for the Vmax1 in series [1] (setting [2]) and in series [1] (setting [3]) were 19.7 (17.6–22.4) nmol/min/mg protein and 1470 (1020–2700) nmol/min/mg protein, respectively. Further, the Km in series [1] was 927 µM; in the series with recombinant UGT1A1, 230 µM.

By Km is commonly meant the substrate concentration at which the rate is half of its maximum.

The record behind these values is publication PMC4258421 (Archives of biochemistry and biophysics, 2014).
